Source: PubChem BioAssay (NCI)
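Where inhibition never reached the appropriate level, the endpoint shown equals the highest concentration tested. Otherwise, values were interpolated linearly from a five-concentration, 48-hour dose response in 96-well plates. TGI marks complete inhibition of growth.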

Key:
Test in all cases: NCI tumour cell line growth inhibition, 48 h
786-0 renal = test system: 786-0 renal
A498 renal = test system: A498 renal
ACHN renal = test system: ACHN renal
BT-549 breast = test system: BT-549 breast
CAKI-1 renal = test system: CAKI-1 renal
COLO 205 colon = test system: COLO 205 colon
DU-145 prostate = test system: DU-145 prostate
EKVX NSCLC = test system: EKVX NSCLC
HCC-2998 colon = test system: HCC-2998 colon
HCT-116 colon = test system: HCT-116 colon
HCT-15 colon = test system: HCT-15 colon
HL-60(TB) leukemia = test system: HL-60(TB) leukemia
HOP-62 NSCLC = test system: HOP-62 NSCLC
HS 578T breast = test system: HS 578T breast
HT29 colon = test system: HT29 colon
IGROV1 ovarian = test system: IGROV1 ovarian
K-562 leukemia = test system: K-562 leukemia
KM12 colon = test system: KM12 colon
LOX IMVI melanoma = test system: LOX IMVI melanoma
MALME-3M melanoma = test system: MALME-3M melanoma
MCF7 breast = test system: MCF7 breast
MDA-MB-231 breast = test system: MDA-MB-231 breast
MDA-MB-435 = test system: MDA-MB-435
MDA-N = test system: MDA-N
MOLT-4 leukemia = test system: MOLT-4 leukemia
NCI-H226 lung = test system: NCI-H226 lung
NCI-H23 lung = test system: NCI-H23 lung
NCI-H460 lung = test system: NCI-H460 lung
NCI-H522 lung = test system: NCI-H522 lung
NCI/ADR-RES ovarian = test system: NCI/ADR-RES ovarian
OVCAR-3 ovarian = test system: OVCAR-3 ovarian
OVCAR-4 ovarian = test system: OVCAR-4 ovarian
OVCAR-5 ovarian = test system: OVCAR-5 ovarian
OVCAR-8 ovarian = test system: OVCAR-8 ovarian
PC-3 prostate = test system: PC-3 prostate
RXF 393 renal = test system: RXF 393 renal
SF-268 CNS = test system: SF-268 CNS
SF-295 CNS = test system: SF-295 CNS
SK-MEL-2 melanoma = test system: SK-MEL-2 melanoma
SK-MEL-28 melanoma = test system: SK-MEL-28 melanoma
SK-MEL-5 melanoma = test system: SK-MEL-5 melanoma
SN12C renal = test system: SN12C renal
SNB-19 CNS = test system: SNB-19 CNS
SNB-75 CNS = test system: SNB-75 CNS
SR leukemia = test system: SR leukemia
SW-620 colon = test system: SW-620 colon
TK-10 renal = test system: TK-10 renal
U251 CNS = test system: U251 CNS
UACC-257 melanoma = test system: UACC-257 melanoma
UACC-62 melanoma = test system: UACC-62 melanoma
UO-31 renal = test system: UO-31 renal
RPMI-8226 leukemia = test system: RPMI-8226 leukemia
SF-539 CNS = test system: SF-539 CNS

Structure (SMILES): COc1ccc(Nc2nc3cc(C(F)(F)F)ccc3nc2C(=O)O)cc1
- TGI (786-0 renal): 43.9 µM
- TGI (A498 renal): 35 µM
- TGI (ACHN renal): > 100 µM
- TGI (BT-549 breast): 29.2 µM
- TGI (CAKI-1 renal): > 100 µM
- TGI (COLO 205 colon): 46.7 µM
- TGI (DU-145 prostate): > 100 µM
- TGI (EKVX NSCLC): 67.5 µM
- TGI (HCC-2998 colon): 31.9 µM
- TGI (HCT-116 colon): 33.5 µM
- TGI (HCT-15 colon): 39 µM
- TGI (HL-60(TB) leukemia): 83.6 µM
- TGI (HOP-62 NSCLC): 30.4 µM
- TGI (HS 578T breast): 55.5 µM
- TGI (HT29 colon): > 100 µM
- TGI (IGROV1 ovarian): 90.2 µM
- TGI (K-562 leukemia): 44.4 µM
- TGI (KM12 colon): 92.4 µM
- TGI (LOX IMVI melanoma): 40.8 µM
- TGI (MALME-3M melanoma): 41.4 µM
- TGI (MCF7 breast): 51.7 µM
- TGI (MDA-MB-231 breast): > 100 µM
- TGI (MDA-MB-435): 48.1 µM
- TGI (MDA-N): > 100 µM
- TGI (MOLT-4 leukemia): 28.6 µM
- TGI (NCI-H226 lung): 54.1 µM
- TGI (NCI-H23 lung): 30 µM
- TGI (NCI-H460 lung): 53.3 µM
- TGI (NCI-H522 lung): 30 µM
- TGI (NCI/ADR-RES ovarian): 61 µM
- TGI (OVCAR-3 ovarian): 34.1 µM
- TGI (OVCAR-4 ovarian): > 100 µM
- TGI (OVCAR-5 ovarian): 60.6 µM
- TGI (OVCAR-8 ovarian): 46.7 µM
- TGI (PC-3 prostate): 57 µM
- TGI (RXF 393 renal): 26.8 µM
- TGI (SF-268 CNS): 39.5 µM
- TGI (SF-295 CNS): 35.7 µM
- TGI (SK-MEL-2 melanoma): 28 µM
- TGI (SK-MEL-28 melanoma): > 100 µM
- TGI (SK-MEL-5 melanoma): 58.5 µM
- TGI (SN12C renal): > 100 µM
- TGI (SNB-19 CNS): 72.2 µM
- TGI (SNB-75 CNS): 48.3 µM
- TGI (SR leukemia): 34.1 µM
- TGI (SW-620 colon): 77.6 µM
- TGI (TK-10 renal): > 100 µM
- TGI (U251 CNS): 30.4 µM
- TGI (UACC-257 melanoma): 50.7 µM
- TGI (UACC-62 melanoma): 27.2 µM
- TGI (UO-31 renal): 26.5 µM

Structure (SMILES): O=c1[nH]c2[nH]c(-c3ccc(Br)cc3)cc2c2ccccc12
- TGI (786-0 renal): > 100 µM
- TGI (A498 renal): > 100 µM
- TGI (ACHN renal): > 100 µM
- TGI (BT-549 breast): > 100 µM
- TGI (CAKI-1 renal): > 100 µM
- TGI (COLO 205 colon): > 100 µM
- TGI (DU-145 prostate): > 100 µM
- TGI (EKVX NSCLC): > 100 µM
- TGI (HCC-2998 colon): > 100 µM
- TGI (HCT-116 colon): > 100 µM
- TGI (HCT-15 colon): > 100 µM
- TGI (HL-60(TB) leukemia): 28 µM
- TGI (HOP-62 NSCLC): 53.9 µM
- TGI (HS 578T breast): 38.5 µM
- TGI (HT29 colon): > 100 µM
- TGI (IGROV1 ovarian): > 100 µM
- TGI (K-562 leukemia): > 100 µM
- TGI (KM12 colon): > 100 µM
- TGI (MALME-3M melanoma): > 100 µM
- TGI (MCF7 breast): > 100 µM
- TGI (MDA-MB-231 breast): 44.6 µM
- TGI (MDA-MB-435): > 100 µM
- TGI (MDA-N): > 100 µM
- TGI (MOLT-4 leukemia): 26.9 µM
- TGI (NCI-H226 lung): > 100 µM
- TGI (NCI-H23 lung): > 100 µM
- TGI (NCI-H460 lung): > 100 µM
- TGI (NCI-H522 lung): > 100 µM
- TGI (NCI/ADR-RES ovarian): > 100 µM
- TGI (OVCAR-3 ovarian): > 100 µM
- TGI (OVCAR-4 ovarian): > 100 µM
- TGI (OVCAR-5 ovarian): > 100 µM
- TGI (OVCAR-8 ovarian): > 100 µM
- TGI (PC-3 prostate): > 100 µM
- TGI (RPMI-8226 leukemia): > 100 µM
- TGI (RXF 393 renal): 47.1 µM
- TGI (SF-268 CNS): > 100 µM
- TGI (SF-295 CNS): > 100 µM
- TGI (SF-539 CNS): > 100 µM
- TGI (SK-MEL-2 melanoma): > 100 µM
- TGI (SK-MEL-28 melanoma): > 100 µM
- TGI (SK-MEL-5 melanoma): > 100 µM
- TGI (SN12C renal): > 100 µM
- TGI (SNB-19 CNS): > 100 µM
- TGI (SNB-75 CNS): 37.1 µM
- TGI (SR leukemia): 26.9 µM
- TGI (SW-620 colon): > 100 µM
- TGI (TK-10 renal): > 100 µM
- TGI (U251 CNS): 92.1 µM
- TGI (UACC-257 melanoma): > 100 µM
- TGI (UACC-62 melanoma): > 100 µM
- TGI (UO-31 renal): > 100 µM
